{"source": "paper PMC10938783", "about": "“A novel pan-PI3K inhibitor KTC1101 synergizes with anti-PD-1 therapy by targeting tumor suppression and immune activation” (Molecular Cancer, 2024)", "tested_on": "B16 cells gene expression", "assay": "RNA-Seq (DEGs, GSEA, heatmaps) of B16 cells", "conditions": "KTC1101 0.2μM, B16 cells, GSEA KEGG"}
{"smiles": "COc1cc(N)cc2c1nc(C(F)F)n2-c1nc(N2CCCOCC2)nc(N2CCOCC2)n1", "note": "[KTC1101, 2-(difluoromethyl)-4-methoxy-1-(4-morpholino-6-(1,4-oxazepan-4-yl)-1,3,5-triazin-2-yl)-1H-benzo[d]imidazol-6-amine]", "values": [{"measurement": "NES, mmu04970 Salivary secretion", "value": 1.144}, {"measurement": "NES, mmu04972 Pancreatic secretion", "value": 0.9417}, {"measurement": "NES, mmu05017 Spinocerebellar ataxia", "value": -1.093}, {"measurement": "NES, mmu05031 Amphetamine addiction", "value": 1.031}, {"measurement": "NES, mmu05034 Alcoholism", "value": 0.984}, {"measurement": "NES, mmu05100 Bacterial invasion of epithelial cells", "value": 0.6338}, {"measurement": "NES, mmu05132 Salmonella infection", "value": -1.08}, {"measurement": "NES, mmu05133 Pertussis", "value": 0.6182}, {"measurement": "NES, mmu05134 Legionellosis", "value": 1.026}, {"measurement": "NES, mmu05135 Yersinia infection", "value": 0.5197}, {"measurement": "NES, mmu05145 Toxoplasmosis", "value": 1.047}, {"measurement": "NES, mmu05160 Hepatitis C", "value": -0.848}, {"measurement": "NES, mmu05162 Measles", "value": 1.0518}, {"measurement": "NES, mmu05165 Human papillomavirus infection", "value": 0.8359}, {"measurement": "NES, mmu05170 Human immunodeficiency virus 1 infection", "value": 0.8557}, {"measurement": "NES, mmu05200 Pathways in cancer", "value": 1.059}, {"measurement": "NES, mmu05203 Viral carcinogenesis", "value": 0.855}, {"measurement": "NES, mmu05204 Chemical carcinogenesis - DNA adducts", "value": -1.166}, {"measurement": "NES, mmu05206 MicroRNAs in cancer", "value": 1.025}, {"measurement": "NES, mmu05207 Chemical carcinogenesis - receptor activation", "value": 0.9371}, {"measurement": "NES, mmu05210 Colorectal cancer", "value": 0.7382}, {"measurement": "NES, mmu05211 Renal cell carcinoma", "value": -0.9675}, {"measurement": "NES, mmu05212 Pancreatic cancer", "value": -0.9022}, {"measurement": "NES, mmu05213 Endometrial cancer", "value": -1.003}, {"measurement": "NES, mmu05214 Glioma", "value": 0.9787}, {"measurement": "NES, mmu05216 Thyroid cancer", "value": 0.6447}, {"measurement": "NES, mmu05218 Melanoma", "value": 1.185}, {"measurement": "NES, mmu05219 Bladder cancer", "value": 0.8356}, {"measurement": "NES, mmu05220 Chronic myeloid leukemia", "value": 0.9551}, {"measurement": "NES, mmu05223 Non-small cell lung cancer", "value": -0.8178}, {"measurement": "NES, mmu05231 Choline metabolism in cancer", "value": 1.119}, {"measurement": "NES, mmu05235 PD-L1 expression and PD-1 checkpoint pathway in cancer", "value": 0.9645}, {"measurement": "NES, mmu05412 Arrhythmogenic right ventricular cardiomyopathy", "value": 1.0322}, {"measurement": "NES, mmu05416 Viral myocarditis", "value": 0.9628}, {"measurement": "NES, mmu05417 Lipid and atherosclerosis", "value": 1.128}, {"measurement": "enrichmentScore, mmu00071 Fatty acid degradation", "value": 0.2512}, {"measurement": "enrichmentScore, mmu00310 Lysine degradation", "value": -0.1985}, {"measurement": "enrichmentScore, mmu00380 Tryptophan metabolism", "value": 0.4505}, {"measurement": "enrichmentScore, mmu00500 Starch and sucrose metabolism", "value": -0.3977}, {"measurement": "enrichmentScore, mmu00510 N-Glycan biosynthesis", "value": -0.1868}, {"measurement": "enrichmentScore, mmu00513 Various types of N-glycan biosynthesis", "value": 0.3555}, {"measurement": "enrichmentScore, mmu00514 Other types of O-glycan biosynthesis", "value": 0.426}, {"measurement": "enrichmentScore, mmu00562 Inositol phosphate metabolism", "value": -0.271}, {"measurement": "enrichmentScore, mmu00564 Glycerophospholipid metabolism", "value": -0.1904}, {"measurement": "enrichmentScore, mmu00600 Sphingolipid metabolism", "value": -0.2721}, {"measurement": "enrichmentScore, mmu00860 Porphyrin metabolism", "value": -0.354}, {"measurement": "enrichmentScore, mmu00980 Metabolism of xenobiotics by cytochrome P450", "value": -0.3932}, {"measurement": "enrichmentScore, mmu00982 Drug metabolism - cytochrome P450", "value": -0.394}, {"measurement": "enrichmentScore, mmu01250 Biosynthesis of nucleotide sugars", "value": -0.3381}, {"measurement": "enrichmentScore, mmu01522 Endocrine resistance", "value": 0.2781}, {"measurement": "enrichmentScore, mmu01523 Antifolate resistance", "value": -0.26}, {"measurement": "enrichmentScore, mmu02010 ABC transporters", "value": -0.2376}, {"measurement": "enrichmentScore, mmu03008 Ribosome biogenesis in eukaryotes", "value": 0.1194}, {"measurement": "enrichmentScore, mmu03015 mRNA surveillance pathway", "value": -0.1312}, {"measurement": "enrichmentScore, mmu03018 RNA degradation", "value": -0.2392}, {"measurement": "enrichmentScore, mmu03022 Basal transcription factors", "value": -0.1746}, {"measurement": "enrichmentScore, mmu03040 Spliceosome", "value": -0.1926}, {"measurement": "enrichmentScore, mmu03060 Protein export", "value": -0.3667}, {"measurement": "enrichmentScore, mmu03082 ATP-dependent chromatin remodeling", "value": 0.1455}, {"measurement": "enrichmentScore, mmu03083 Polycomb repressive complex", "value": 0.08375}, {"measurement": "enrichmentScore, mmu03250 Viral life cycle - HIV-1", "value": -0.1606}, {"measurement": "enrichmentScore, mmu03410 Base excision repair", "value": 0.1698}, {"measurement": "enrichmentScore, mmu03420 Nucleotide excision repair", "value": -0.1542}, {"measurement": "enrichmentScore, mmu03430 Mismatch repair", "value": -0.1664}, {"measurement": "enrichmentScore, mmu03460 Fanconi anemia pathway", "value": -0.2915}, {"measurement": "enrichmentScore, mmu04014 Ras signaling pathway", "value": -0.2302}, {"measurement": "enrichmentScore, mmu04068 FoxO signaling pathway", "value": 0.2292}, {"measurement": "enrichmentScore, mmu04070 Phosphatidylinositol signaling system", "value": -0.1821}, {"measurement": "enrichmentScore, mmu04071 Sphingolipid signaling pathway", "value": -0.1806}, {"measurement": "enrichmentScore, mmu04115 p53 signaling pathway", "value": 0.2436}, {"measurement": "enrichmentScore, mmu04120 Ubiquitin mediated proteolysis", "value": -0.1841}, {"measurement": "enrichmentScore, mmu04130 SNARE interactions in vesicular transport", "value": -0.1753}, {"measurement": "enrichmentScore, mmu04136 Autophagy - other", "value": 0.2123}, {"measurement": "enrichmentScore, mmu04137 Mitophagy - animal", "value": -0.2835}, {"measurement": "enrichmentScore, mmu04140 Autophagy - animal", "value": -0.2}, {"measurement": "enrichmentScore, mmu04144 Endocytosis", "value": 0.1533}, {"measurement": "enrichmentScore, mmu04146 Peroxisome", "value": 0.2695}, {"measurement": "enrichmentScore, mmu04148 Efferocytosis", "value": 0.2467}, {"measurement": "enrichmentScore, mmu04150 mTOR signaling pathway", "value": -0.2361}, {"measurement": "enrichmentScore, mmu04152 AMPK signaling pathway", "value": -0.2382}, {"measurement": "enrichmentScore, mmu04210 Apoptosis", "value": 0.1949}]}
